Assay results reported in patent US11136351B2 (priority 2016, dated 2021).
Residues, ends and D or L forms follow the SMILES beside them.

Details: pH 1.2

N=C(N)NCCC[C@@H]1NC(=O)[C@@H]2CCCN2C(=O)[C@H](CC(=O)O)NC(=O)[C@H](CO)NC(=O)[C@H](CO)NC(=O)[C@@H](NC(=O)CN)CSSC[C@@H](C(N)=O)NC1=O [[Ser^3]Vc1.1(1-8)] (HELM PEPTIDE1{G.C.S.S.D.P.R.C.[am]}$PEPTIDE1,PEPTIDE1,2:R3-8:R3$$$V2.0)
stability in simulated gastric fluid: good stability
